Assay results taken from PubChem BioAssay AID1963451 (Molecular Pharmacology Branch, DTP, NCI, 2024).
Blank lines part the entries; values can stand above or below the compound they belong to.

Tested on: 521955-158-R6-J3-PDC complex spheroid growth, % test/control
Assay: Anticancer human tumor 521955-158-R6-J3-PDC patient-derived pancreatic carcinoma cell line growth inhibition [Asc]
Settings: for IC50: curve of first compound; for viability, T/C: stronger effect = lower value
Method in brief: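 Complex solid-tumor spheroids incorporating human endothelial and mesenchymal stem cells received single agents or combinations over half-log dilution ranges anchored to clinical Cmax.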
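Note: spheroids exposed to compounds for 7 days.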
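Throughout, for viability, T/C: 100% = DMSO vehicle control wells.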

IC50 (second compound 0.00949 µM): > 3000 nM | IC50 (second compound 0.03 µM): > 3000 nM | IC50 (second compound 0.0949 µM): > 3000 nM | IC50 (second compound 0.3 µM): > 3000 nM | IC50 (second compound 0.949 µM): > 3000 nM | IC50 (second compound 3 µM): > 3000 nM
SMILES: Cc1nc(N2CCC3(CC2)COC(C)C3N)c(CO)nc1Sc1ccnc(N)c1Cl (stereo unspecified) + CCN1C(C(=O)NC23CCC(C(=O)O)(CC2)CC3)C(c2cccc(Cl)c2F)C2(C(=O)Nc3cc(Cl)ccc32)C12CCCCC2
viability, T/C (second compound 0.00949 µM, first compound 0.00949 µM): 128% | viability, T/C (second compound 0.00949 µM, first compound 0.03 µM): 107% | viability, T/C (second compound 0.00949 µM, first compound 0.0949 µM): 92.8% | viability, T/C (second compound 0.00949 µM, first compound 0.3 µM): 93.8% | viability, T/C (second compound 0.00949 µM, first compound 0.949 µM): 77.8% | viability, T/C (second compound 0.00949 µM, first compound 3 µM): 74.5% | viability, T/C (second compound 0.03 µM, first compound 0.00949 µM): 109% | viability, T/C (second compound 0.03 µM, first compound 0.03 µM): 104% | viability, T/C (second compound 0.03 µM, first compound 0.0949 µM): 91% | viability, T/C (second compound 0.03 µM, first compound 0.3 µM): 106% | viability, T/C (second compound 0.03 µM, first compound 0.949 µM): 93.8% | viability, T/C (second compound 0.03 µM, first compound 3 µM): 85.8% | viability, T/C (second compound 0.0949 µM, first compound 0.00949 µM): 115% | viability, T/C (second compound 0.0949 µM, first compound 0.03 µM): 113% | viability, T/C (second compound 0.0949 µM, first compound 0.0949 µM): 106% | viability, T/C (second compound 0.0949 µM, first compound 0.3 µM): 82.6% | viability, T/C (second compound 0.0949 µM, first compound 0.949 µM): 82.2% | viability, T/C (second compound 0.0949 µM, first compound 3 µM): 79.8% | viability, T/C (second compound 0.3 µM, first compound 0.00949 µM): 112% | viability, T/C (second compound 0.3 µM, first compound 0.03 µM): 82.6% | viability, T/C (second compound 0.3 µM, first compound 0.0949 µM): 113% | viability, T/C (second compound 0.3 µM, first compound 0.3 µM): 95% | viability, T/C (second compound 0.3 µM, first compound 0.949 µM): 83% | viability, T/C (second compound 0.3 µM, first compound 3 µM): 92.6% | viability, T/C (second compound 0.949 µM, first compound 0.00949 µM): 133% | viability, T/C (second compound 0.949 µM, first compound 0.03 µM): 104% | viability, T/C (second compound 0.949 µM, first compound 0.0949 µM): 93.5% | viability, T/C (second compound 0.949 µM, first compound 0.3 µM): 92.4% | viability, T/C (second compound 0.949 µM, first compound 0.949 µM): 82.2% | viability, T/C (second compound 0.949 µM, first compound 3 µM): 83.1% | viability, T/C (second compound 3 µM, first compound 0.00949 µM): 114% | viability, T/C (second compound 3 µM, first compound 0.03 µM): 90.2% | viability, T/C (second compound 3 µM, first compound 0.0949 µM): 104% | viability, T/C (second compound 3 µM, first compound 0.3 µM): 84.1% | viability, T/C (second compound 3 µM, first compound 0.949 µM): 87.5% | viability, T/C (second compound 3 µM, first compound 3 µM): 72.3%

IC50 (second compound 0.00949 µM): 211 nM | IC50 (second compound 0.03 µM): 365 nM | IC50 (second compound 0.0949 µM): 469 nM | IC50 (second compound 0.3 µM): 321 nM | IC50 (second compound 0.949 µM): 309 nM | IC50 (second compound 3 µM): 290 nM
SMILES: COc1c(OCCCN2CCOCC2)ccc2c3n(c(=NC(=O)c4cnc(N)nc4)nc12)CCN3 + CCN1C(C(=O)NC23CCC(C(=O)O)(CC2)CC3)C(c2cccc(Cl)c2F)C2(C(=O)Nc3cc(Cl)ccc32)C12CCCCC2
viability, T/C (second compound 0.00949 µM, first compound 0.00316 µM): 102% | viability, T/C (second compound 0.00949 µM, first compound 0.01 µM): 79.9% | viability, T/C (second compound 0.00949 µM, first compound 0.0316 µM): 62.5% | viability, T/C (second compound 0.00949 µM, first compound 0.1 µM): 65.2% | viability, T/C (second compound 0.00949 µM, first compound 0.316 µM): 51.9% | viability, T/C (second compound 0.00949 µM, first compound 1 µM): 28.3% | viability, T/C (second compound 0.03 µM, first compound 0.00316 µM): 93.4% | viability, T/C (second compound 0.03 µM, first compound 0.01 µM): 77.1% | viability, T/C (second compound 0.03 µM, first compound 0.0316 µM): 73.2% | viability, T/C (second compound 0.03 µM, first compound 0.1 µM): 66.2% | viability, T/C (second compound 0.03 µM, first compound 0.316 µM): 52.6% | viability, T/C (second compound 0.03 µM, first compound 1 µM): 37.4% | viability, T/C (second compound 0.0949 µM, first compound 0.00316 µM): 79.1% | viability, T/C (second compound 0.0949 µM, first compound 0.01 µM): 77.9% | viability, T/C (second compound 0.0949 µM, first compound 0.0316 µM): 59.5% | viability, T/C (second compound 0.0949 µM, first compound 0.1 µM): 77.7% | viability, T/C (second compound 0.0949 µM, first compound 0.316 µM): 53.9% | viability, T/C (second compound 0.0949 µM, first compound 1 µM): 37% | viability, T/C (second compound 0.3 µM, first compound 0.00316 µM): 95.5% | viability, T/C (second compound 0.3 µM, first compound 0.01 µM): 83.3% | viability, T/C (second compound 0.3 µM, first compound 0.0316 µM): 70.1% | viability, T/C (second compound 0.3 µM, first compound 0.1 µM): 65.5% | viability, T/C (second compound 0.3 µM, first compound 0.316 µM): 56% | viability, T/C (second compound 0.3 µM, first compound 1 µM): 32.1% | viability, T/C (second compound 0.949 µM, first compound 0.00316 µM): 84% | viability, T/C (second compound 0.949 µM, first compound 0.01 µM): 90.6% | viability, T/C (second compound 0.949 µM, first compound 0.0316 µM): 80.5% | viability, T/C (second compound 0.949 µM, first compound 0.1 µM): 67.6% | viability, T/C (second compound 0.949 µM, first compound 0.316 µM): 50.6% | viability, T/C (second compound 0.949 µM, first compound 1 µM): 32.7% | viability, T/C (second compound 3 µM, first compound 0.00316 µM): 82.1% | viability, T/C (second compound 3 µM, first compound 0.01 µM): 83.8% | viability, T/C (second compound 3 µM, first compound 0.0316 µM): 78.8% | viability, T/C (second compound 3 µM, first compound 0.1 µM): 65% | viability, T/C (second compound 3 µM, first compound 0.316 µM): 49.6% | viability, T/C (second compound 3 µM, first compound 1 µM): 28.8%

IC50 (second compound 0.00316 µM): 115 nM | IC50 (second compound 0.01 µM): 63 nM | IC50 (second compound 0.0316 µM): 55.9 nM | IC50 (second compound 0.1 µM): 70.3 nM | IC50 (second compound 0.316 µM): 42 nM | IC50 (second compound 1 µM): < 31.6 nM
SMILES: C#Cc1c(F)ccc2cc(O)cc(-c3ncc4c(N5CC6CCC(C5)N6)nc(OCC56CCCN5CC(F)C6)nc4c3F)c12 (stereo unspecified) + CNC(C)C(=O)NC1CN(S(=O)(=O)c2cccc(S(=O)(=O)N3CCC4CCC(C(=O)NC(c5ccccc5)c5ccccc5)N4C(=O)C(NC(=O)C(C)NC)C3)c2)CCC2CCC(C(=O)NC(c3ccccc3)c3ccccc3)N2C1=O
viability, T/C (second compound 0.00316 µM, first compound 0.0316 µM): 57.4% | viability, T/C (second compound 0.00316 µM, first compound 0.1 µM): 45.8% | viability, T/C (second compound 0.00316 µM, first compound 0.316 µM): 46.8% | viability, T/C (second compound 0.00316 µM, first compound 1 µM): 38.4% | viability, T/C (second compound 0.00316 µM, first compound 3.16 µM): 36.3% | viability, T/C (second compound 0.00316 µM, first compound 10 µM): 21.4% | viability, T/C (second compound 0.01 µM, first compound 0.0316 µM): 56.6% | viability, T/C (second compound 0.01 µM, first compound 0.1 µM): 44.7% | viability, T/C (second compound 0.01 µM, first compound 0.316 µM): 38.4% | viability, T/C (second compound 0.01 µM, first compound 1 µM): 34.7% | viability, T/C (second compound 0.01 µM, first compound 3.16 µM): 37% | viability, T/C (second compound 0.01 µM, first compound 10 µM): 25.1% | viability, T/C (second compound 0.0316 µM, first compound 0.0316 µM): 54.9% | viability, T/C (second compound 0.0316 µM, first compound 0.1 µM): 42.8% | viability, T/C (second compound 0.0316 µM, first compound 0.316 µM): 42% | viability, T/C (second compound 0.0316 µM, first compound 1 µM): 33.1% | viability, T/C (second compound 0.0316 µM, first compound 3.16 µM): 25.6% | viability, T/C (second compound 0.0316 µM, first compound 10 µM): 24.9% | viability, T/C (second compound 0.1 µM, first compound 0.0316 µM): 56.5% | viability, T/C (second compound 0.1 µM, first compound 0.1 µM): 46% | viability, T/C (second compound 0.1 µM, first compound 0.316 µM): 38.7% | viability, T/C (second compound 0.1 µM, first compound 1 µM): 38.7% | viability, T/C (second compound 0.1 µM, first compound 3.16 µM): 33.6% | viability, T/C (second compound 0.1 µM, first compound 10 µM): 24.8% | viability, T/C (second compound 0.316 µM, first compound 0.0316 µM): 54.4% | viability, T/C (second compound 0.316 µM, first compound 0.1 µM): 37% | viability, T/C (second compound 0.316 µM, first compound 0.316 µM): 33.1% | viability, T/C (second compound 0.316 µM, first compound 1 µM): 29.7% | viability, T/C (second compound 0.316 µM, first compound 3.16 µM): 33.6% | viability, T/C (second compound 0.316 µM, first compound 10 µM): 18.3% | viability, T/C (second compound 1 µM, first compound 0.0316 µM): 44.9% | viability, T/C (second compound 1 µM, first compound 0.1 µM): 41.7% | viability, T/C (second compound 1 µM, first compound 0.316 µM): 43.5% | viability, T/C (second compound 1 µM, first compound 1 µM): 30.7% | viability, T/C (second compound 1 µM, first compound 3.16 µM): 30.4% | viability, T/C (second compound 1 µM, first compound 10 µM): 21.9%
